The record followed here is patent publication US20240002397A1, “3-AMINO PYRROLIDINE AND PIPERIDINE MACROCYCLIC OREXIN RECEPTOR AGONISTS” (Merck Sharp & Dohme LLC, priority 2020, published 2024).

As usually defined, the Emax is the greatest response seen or fitted, relative to the assay's reference.

Each structure is given as a SMILES string.

The target in the test is T1, human OX2R (Homo sapiens, UniProt O43614).
T1 sequence (O43614 1-444): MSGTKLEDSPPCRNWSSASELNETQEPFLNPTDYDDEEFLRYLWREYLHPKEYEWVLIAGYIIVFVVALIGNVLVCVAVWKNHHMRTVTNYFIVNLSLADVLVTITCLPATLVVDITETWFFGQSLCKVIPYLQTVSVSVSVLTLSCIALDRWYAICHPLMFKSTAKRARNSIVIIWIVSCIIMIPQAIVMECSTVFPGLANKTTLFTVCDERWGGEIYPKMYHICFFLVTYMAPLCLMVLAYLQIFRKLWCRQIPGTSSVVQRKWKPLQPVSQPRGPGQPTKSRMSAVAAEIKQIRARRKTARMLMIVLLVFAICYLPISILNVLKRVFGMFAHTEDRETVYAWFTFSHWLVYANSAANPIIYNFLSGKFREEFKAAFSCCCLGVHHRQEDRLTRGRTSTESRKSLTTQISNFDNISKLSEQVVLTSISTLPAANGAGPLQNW
Briefly: IPOne (IP-1) orexin receptor agonist assay in CHO cells expressing human OX2R. The following applies: CHO, hOX2R IP-One; percentage of mean max effect of a reference compound at 1 uM with 100% activity.
The compound `Cc1ccc2nc1C1CCC(CC1)OCC1[C@@H](NS(C)(=O)=O)C[C@@H](C)N1C(=O)OCCCO2` (stereo partly drawn) [Example 80, N-((2^1S,2^4S,5^2R,5^3S,5^5R)-1^3,5^5-dimethyl-6-oxo-3,7,11-trioxa-1(2,6)-pyridina-5(2,1)-pyrrolidina-2(1,4)-cyclohexanacycloundecaphane-5^3-yl)methanesulfonamide] displayed an Emax of 99.4%.
Consider `C[C@@H]1C[C@H](NS(C)(=O)=O)C2COC3CCC(CC3)c3nc(c(F)cc3F)OCCCOC(=O)N21` (stereo partly drawn) [Example 81, N-((2^1S,2^4S,5^2R,5^3S,5^5R)-1^3,1^5-difluoro-5^5-methyl-6-oxo-3,7,11-trioxa-1(2,6)-pyridina-5(2,1)-pyrrolidina-2(1,4)-cyclohexanacycloundecaphane-5^3-yl)methanesulfonamide], for which the Emax was 104%.
As for `COC[C@@H]1C[C@H](NS(C)(=O)=O)C2COC3CCC(CC3)c3cc(C(F)(F)F)cc(n3)OCCCOC(=O)N21` (stereo partly drawn) [Example 83, N-((2^1S,2^4S,5^2R,5^3S,5^5S)-5^5-(methoxymethyl)-6-oxo-1^4-(trifluoromethyl)-3,7,11-trioxa-1(2,6)-pyridina-5(2,1)-pyrrolidina-2(1,4)-cyclohexanacycloundecaphane-5^3-yl)methanesulfonamide], the Emax came to 102%.
In turn, `COC[C@@H]1C[C@H](NS(C)(=O)=O)C2COC3CCC(CC3)c3cc(C(F)(F)F)cc(n3)OCCOC(=O)N21` (stereo partly drawn) [Example 84, N-((2^1S,2^4S,5^2R,5^3S,5^5S)-5^5-(methoxymethyl)-6-oxo-1^4-(trifluoromethyl)-3,7,10-trioxa-1(2,6)-pyridina-5(2,1)-pyrrolidina-2(1,4)-cyclohexanacyclodecaphane-5^3-yl)methanesulfonamide] returned an Emax of 101%.
For the compound `COC[C@@H]1C[C@H](NS(C)(=O)=O)C2COC3CCC(CC3)c3cc(C(F)F)cc(n3)OCCCOC(=O)N21` (stereo partly drawn) [Example 85, N-((2^1S,2^4S,5^2R,5^3S,5^5S)-14-(difluoromethyl)-5^5-(methoxymethyl)-6-oxo-3,7,11-trioxa-1(2,6)-pyridina-5(2,1)-pyrrolidina-2(1,4)-cyclohexanacycloundecaphane-5^3-yl)methanesulfonamide], the Emax worked out at 102%.
The compound `C[C@@H]1C[C@H](NS(C)(=O)=O)C2COC3CCC(CC3)c3cc(C(F)F)cc(n3)OCCCOC(=O)N21` (stereo partly drawn) [Example 86, N-((2^1S,2^4S,5^2R,5^3S,5^5R)-1^4-(difluoromethyl)-5^5-methyl-6-oxo-3,7,11-trioxa-1(2,6)-pyridina-5(2,1)-pyrrolidina-2(1,4)-cyclohexanacycloundecaphane-5^3-yl)methanesulfonamide] came in with an Emax of 101%.
`COC[C@@H]1C[C@H](NS(C)(=O)=O)C2COC3CCC(CC3)c3nc(ccc3C(F)(F)F)OCCOC(=O)N21` (stereo partly drawn) [Example 87, N-((2^1S,2^4S,5^2R,5^3S,5^5S)-5^5-(methoxymethyl)-6-oxo-1^3-(trifluoromethyl)-3,7,10-trioxa-1(2,6)-pyridina-5(2,1)-pyrrolidina-2(1,4)-cyclohexanacyclodecaphane-5^3-yl)methanesulfonamide]: the Emax came to 100%.
`COc1cc2nc(c1)[C@H]1CC[C@H](CC1)OC[C@H]1[C@@H](NS(C)(=O)=O)C[C@@H](C)N1C(=O)OCCCN2` [Example 88, N-((2^1S,2^4S,5^2R,5^3S,5^5R)-1^4-methoxy-5^5-methyl-6-oxo-3,7-dioxa-11-aza-1(2,6)-pyridina-5(2,1)-pyrrolidina-2(1,4)-cyclohexanacycloundecaphane-5^3-yl)methanesulfonamide] registered an Emax of 103%.
For the compound `C[C@@H]1C[C@H](NS(C)(=O)=O)C2COC3CCC(CC3)c3cc(C(F)(F)F)cc(n3)N(C)CCCOC(=O)N21` (stereo partly drawn) [Example 89, N-((2^1S,2^4S,5^2R,5^3S,5^5R)-5^5,1^1-dimethyl-6-oxo-1^4-(trifluoromethyl)-3,7-dioxa-11-aza-1(2,6)-pyridina-5(2,1)-pyrrolidina-2(1,4)-cyclohexanacycloundecaphane-5^3-yl)methanesulfonamide], the Emax came out at 101%.
As for `C[C@@H]1C[C@H](NS(C)(=O)=O)C2COC3CCC(CC3)c3cccc(n3)NCCCOC(=O)N21` (stereo partly drawn) [Example 90, N-((2^1S,2^4S,5^2R,5^3S,5^5R)-5^5-methyl-6-oxo-3,7-dioxa-11-aza-1(2,6)-pyridina-5(2,1)-pyrrolidina-2(1,4)-cyclohexanacycloundecaphane-5^3-yl)methanesulfonamide], the figure is 101%; as for `C[C@@H]1C[C@H](NS(C)(=O)=O)C2COC3CCC(CC3)c3cccc(n3)N(C)CCCOC(=O)N21` (stereo partly drawn) [Example 91, N-((2^1S,2^4S,5^2R, 5^3S,5^5R)-5^5,^11-dimethyl-6-oxo-3,7-dioxa-11-aza-1(2,6)-pyridina-5(2,1)-pyrrolidina-2(1,4)-cyclohexanacycloundecaphane-5^3-yl)methanesulfonamide], 102%; as for `C[C@@H]1C[C@H](NS(C)(=O)=O)C2COC3CCC(CC3)c3ccc(F)c(n3)NCCOC(=O)N21` (stereo partly drawn) [Example 92, N-((2^1S,2^4S,5^2R,5^3S,5^5R)-1^5-fluoro-5^5-methyl-6-oxo-3,7-dioxa-10-aza-1(2,6)-pyridina-5(2,1)-pyrrolidina-2(1,4)-cyclohexanacyclodecaphane-5^3-yl)methanesulfonamide], 98.9%.
As to `C[C@@H]1C[C@H](NS(C)(=O)=O)C2COC3CCC(CC3)c3ccc(F)c(n3)NCCCOC(=O)N21` (stereo partly drawn) [Example 93, N-((2^1S,2^4S,5^2R,5^3S,5^5R)-1^5-fluoro-5^5-methyl-6-oxo-3,7-dioxa-11-aza-1(2,6)-pyridina-5(2,1)-pyrrolidina-2(1,4)-cyclohexanacycloundecaphane-5^3-yl)methanesulfonamide], the Emax amounted to 103%.
On to `C[C@@H]1C[C@H](NS(C)(=O)=O)C2COC3CCC(CC3)c3nc(ccc3C(F)(F)F)N(C)CCCOC(=O)N21` (stereo partly drawn) [Example 94, N-((2^1S,2^4S,5^2R,5^3S,5^5R)-5^5,1^1-dimethyl-6-oxo-1^3-(trifluoromethyl)-3,7-dioxa-11-aza-1(2,6)-pyridina-5(2,1)-pyrrolidina-2(1,4)-cyclohexanacycloundecaphane-5^3-yl)methanesulfonamid], for which the Emax is 37.5%.
The compound `COc1cc2nc(c1)N(C)CCCOC(=O)N1C(COC3CCC2CC3)[C@@H](NS(C)(=O)=O)C[C@H]1C` (stereo partly drawn) [Example 95, N-((2^1S,2^4S,5^2R,5^3S,5^5R)-1^4-methoxy-5^5,1^1-dimethyl-6-oxo-3,7-dioxa-11-aza-1(2,6)-pyridina-5(2,1)-pyrrolidina-2(1,4)-cyclohexanacycloundecaphane-5^3-yl)methanesulfonamide] returned an Emax of 98.4%.
The compound `CS(=O)(=O)N[C@H]1C[C@@H](CO)N2C(=O)OCCOc3ccc(C(F)(F)F)c(n3)[C@H]3CC[C@H](CC3)OC[C@@H]12` [Example 96, N-((2^1R,2^4R,5^2R,5^3S,5^5S)-5^5-(hydroxymethyl)-6-oxo-1^3-(trifluoromethyl)-3,7,10-trioxa-1(2,6)-pyridina-5(2,1)-pyrrolidina-2(1,4)-cyclohexanacyclodecaphane-5^3-yl)methanesulfonamide] registered a maximal effect (Emax) of 100%.
As for `CS(=O)(=O)N[C@H]1C[C@@H](CO)N2C(=O)OCCCOc3cc(C(F)F)cc(n3)C3CCC(CC3)OCC12` (stereo partly drawn) [Example 97, N-((2^1S,2^4S,5^2R,5^3S,5^5S)-1^4-(difluoromethyl)-5^5-(hydroxymethyl)-6-oxo-3,7,11-trioxa-1(2,6)-pyridina-5(2,1)-pyrrolidina-2(1,4)-cyclohexanacycloundecaphane-5^3-yl)methanesulfonamide], the figure is 98.4%; as for `CN(C)C[C@@H]1C[C@H](NS(C)(=O)=O)[C@@H]2CO[C@H]3CC[C@H](CC3)c3nc(ccc3C(F)(F)F)OCCOC(=O)N12` [Example 98, N-((2^1R,2^4R,5^2R,5^3S,5^5S)-5^5-((dimethylamino)methyl)-6-oxo-1^3-(trifluoromethyl)-3,7,10-trioxa-1(2,6)-pyridina-5(2,1)-pyrrolidina-2(1,4)-cyclohexanacyclodecaphane-5^3-yl)methanesulfonamide], 100%.
`CS(=O)(=O)N[C@H]1C[C@@H](CC(N)=O)N2C(=O)OCCOc3ccc(C(F)(F)F)c(n3)C3CCC(CC3)OCC12` (stereo partly drawn) [Example 99, 2-((2^1R,2^4R,5^2R,5^3S,5^5S)-5^3-(methylsulfonamido)-6-oxo-1^3-(trifluoromethyl)-3,7,10-trioxa-1(2,6)-pyridina-5(2,1)-pyrrolidina-2(1,4)-cyclohexanacyclodecaphane-5^5-yl)acetamide] returned an Emax of 100%.
Next, `CN(C)C[C@@H]1C[C@H](NS(C)(=O)=O)C2COC3CCC(CC3)c3cc(C(F)F)cc(n3)OCCCOC(=O)N21` (stereo partly drawn) [Example 100, N-((2^1S,2^4S,5^2R,5^3S,5^5S)-1^4-(difluoromethyl)-5^5-((dimethylamino)methyl)-6-oxo-3,7,11-trioxa-1(2,6)-pyridina-5(2,1)-pyrrolidina-2(1,4)-cyclohexanacycloundecaphane-5^3-yl)methanesulfonamide]: 102%; `CNC[C@@H]1C[C@H](NS(C)(=O)=O)C2COC3CCC(CC3)c3cc(C(F)F)cc(n3)OCCCOC(=O)N21` (stereo partly drawn) [Example 101, N-((2^1S,2^4S,5^2R,5^3S,5^5S)-1^4-(difluoromethyl)-5^5-((methylamino)methyl)-6-oxo-3,7,11-trioxa-1(2,6)-pyridina-5(2,1)-pyrrolidina-2(1,4)-cyclohexanacycloundecaphane-5^3-yl)methanesulfonamide]: 102%.
